Holding throughout (assay type): cell-based, mouse
Assay [1] has as its system α7 integrin (LacZ reporter in α7βgal+/− myoblasts). The assay can be described thus: Myoblast α7+/LacZ integrin FDG assay (Burkin assay in myoblasts, 96-well). The conditions noted are these: 96-well; for Burkin Assay in Myoblasts, value relative to DMSO: SU9516 analogs, N=3-6; for Burkin Assay in Myoblasts, signal relative to DMSO: α7+/LacZ myoblasts.
In assay [2] the test system is β-galactosidase in CMV-LacZ C2C12 myoblasts. The assay is described as follows: CMV-LacZ secondary screen in C2C12 myoblasts (β-Gal stabilizing assay). Particulars: for CMV-LACZ in Myoblasts, value relative to DMSO: SU9516 analogs, C2C12 CMV-LacZ, N=2; for CMV-LACZ in Myoblasts (β-galactosidase activity relative to DMSO): CMV-LacZ C2C12 myoblasts. An outline of the steps: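 A secondary screen identifies compounds that stabilize β-gal independently of the native promoter, using CMV-LacZ C2C12 cells. Curves span 0.5–40 μM at six levels, in duplicate.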

For assay [3], the system named is α7 integrin (LacZ reporter in α7+/LacZ myotubes). The assay is described as follows: Myotube α7 integrin FDG assay (Burkin assay in myotubes, 96-well). The conditions noted are these: for Burkin Assay in Myotubes, value relative to DMSO: SU9516 analogs, 96-well, N=3-6.
The subject of assay [4] is β-galactosidase in CMV-LacZ C2C12 myotubes. The assay can be described thus: CMV-LacZ secondary screen in C2C12 myotubes (β-Gal stabilizing assay). Particulars: for CMV-LACZ in Myotubes, value relative to DMSO: SU9516 analogs, C2C12 CMV-LacZ, N=2; for CMV-LACZ in Myotubes, signal relative to DMSO: C2C12 CMV-LacZ myotubes, fold relative to DMSO. Put shortly:
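Stable CMV-LacZ C2C12 clone; six-point curve 0.5–40 μM; duplicates.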

The structures appear in SMILES notation.

With `CCO/C(C)=C1\C(=O)Nc2ccccc21` [MLS000554109-01], the “Burkin Assay in Myoblasts, value relative to DMSO” value in assay [1] (0.5 uM) came to 0.9929; in assay [1] (1 uM), 1.049; in assay [1] (5 uM) it was 1.067; in assay [1] (10 uM) it was 1.095; in assay [1] (20 uM), 0.9611; in assay [1] (40 uM), 0.8937. Moreover, the “CMV-LACZ in Myoblasts, value relative to DMSO” value in assay [2] (0.5 uM) is 1.1083; in assay [2] (1 uM), 1.1863; in assay [2] (5 uM), 0.9003; in assay [2] (10 uM) it was 0.9457; in assay [2] (20 uM) it was 0.9853; in assay [2] (40 uM) it was 0.9650. The “Burkin Assay in Myotubes, value relative to DMSO” value in assay [3] (0.5 uM) stood at 0.8839; in assay [3] (1 uM), 1.054; in assay [3] (5 uM) it was 0.9611; in assay [3] (10 uM), 0.9874; in assay [3] (20 uM), 0.8426; in assay [3] (40 uM) it was 1.048. The “CMV-LACZ in Myotubes, value relative to DMSO” value in assay [4] (0.5 uM) is given as 1.2682; in assay [4] (1 uM), 0.9491; in assay [4] (5 uM) it was 1.1559; in assay [4] (10 uM), 1.1355; in assay [4] (20 uM), 0.9100; in assay [4] (40 uM) it was 0.9950.

Turning to `Cn1c(-c2ccccc2)cc2ccccc21` [MLS001215074-01], the “Burkin Assay in Myoblasts, signal relative to DMSO” value in assay [1] (0.5 uM) worked out at 1.023; in assay [1] (1 uM), 0.9004; in assay [1] (5 uM), 0.9431; in assay [1] (10 uM) it was 0.9738; in assay [1] (20 uM), 0.7339; in assay [1] (40 uM) it was 0.5974. Moreover, the “CMV-LACZ in Myoblasts (β-galactosidase activity relative to DMSO)” value in assay [2] (0.5 uM) worked out at 0.7877; in assay [2] (1 uM), 0.7800; in assay [2] (5 uM), 1.1754; in assay [2] (10 uM), 1.0294; in assay [2] (20 uM) it was 1.1277; in assay [2] (40 uM) it was 1.1432. Besides, the “Burkin Assay in Myotubes, α7 integrin LacZ reporter signal relative to DMSO” value in assay [3] (0.5 uM) is 0.7886; in assay [3] (1 uM), 0.8307; in assay [3] (5 uM), 1.05; in assay [3] (10 uM) it was 1.132; in assay [3] (20 uM), 0.7505; in assay [3] (40 uM), 0.8488. Moreover, the “CMV-LACZ in Myotubes, signal relative to DMSO” value is 0.8752 in assay [4] (0.5 uM); 0.9238 in assay [4] (1 uM); 0.8364 in assay [4] (5 uM); 0.8583 in assay [4] (10 uM); 0.8700 in assay [4] (20 uM); 0.9930 in assay [4] (40 uM).

Consider `CCCCN1CC(=O)N2Cc3[nH]c4ccccc4c3C[C@H]2C1=O` [MLS001165424-01], for which the “Burkin Assay in Myoblasts, signal relative to DMSO” value stood at 1.152 in assay [1] (0.5 uM); 1.2222 in assay [1] (1 uM); 0.9966 in assay [1] (5 uM); 0.9548 in assay [1] (10 uM); 1.176 in assay [1] (20 uM); 1.23 in assay [1] (40 uM). Besides, the “CMV-LACZ in Myoblasts (β-galactosidase activity relative to DMSO)” value in assay [2] (0.5 uM) worked out at 1.1754; in assay [2] (1 uM), 0.9796; in assay [2] (5 uM), 1.0607; in assay [2] (10 uM), 1.0078; in assay [2] (20 uM) it was 1.2730; in assay [2] (40 uM) it was 1.2074. Further, the “Burkin Assay in Myotubes, α7 integrin LacZ reporter signal relative to DMSO” value in assay [3] (0.5 uM) turned out to be 0.8771; in assay [3] (1 uM), 0.8568; in assay [3] (5 uM) it was 0.8938; in assay [3] (10 uM), 0.8315; in assay [3] (20 uM), 0.7791; in assay [3] (40 uM), 0.7641. Further, the “CMV-LACZ in Myotubes, signal relative to DMSO” value in assay [4] (0.5 uM) came to 0.9152; in assay [4] (1 uM), 1.1248; in assay [4] (5 uM), 1.0571; in assay [4] (10 uM), 1.1758; in assay [4] (20 uM) it was 1.0316; in assay [4] (40 uM) it was 0.8558.

For the origin of these results see patent US9980943B2, “Methods of treating muscular dystrophy” (BOARD OF REGENTS OF THE NEVADA SYSTEM OF HIGHER EDUCATION, …, priority 2013, dated 2018).
